# Test results: ChEMBL document CHEMBL1127898, “The role of oxygen in the photoinduced antiviral activity of hypericin” (1994)
# What was measured:
# Assay type in all cases: functional
# [1] = system: Equine infectious anemia virus; experiment: Antiviral activity against equine infectious anemia virus (EIAV) in deoxygenation condition effected by using beta-carotene at a concentration of 32 uM
# [2] = system: Equine infectious anemia virus; experiment: Antiviral activity against equine infectious anemia virus (EIAV) in hypoxic condition obtained by passing nitrogen gas, after 0 min of illumination using focal, immunoassay
# [3] = system: Equine infectious anemia virus; experiment: Antiviral activity against equine infectious anemia virus (EIAV) in hypoxic condition obtained by passing argon gas, after 0 min of illumination, using focal immunoassay
# [4] = system: Equine infectious anemia virus; experiment: Antiviral activity against equine infectious anemia virus (EIAV) in hypoxic condition obtained by passing argon gas, after 10 min of illumination, using focal immunoassay
# [5] = system: Equine infectious anemia virus; experiment: Antiviral activity against equine infectious anemia virus (EIAV) in oxygenated condition after 10 min of illumination, using focal immunoassay
# [6] = system: Equine infectious anemia virus; experiment: Antiviral activity against equine infectious anemia virus (EIAV) in deoxygenation condition effected by using beta-carotene at a concentration of 0 uM
# [7] = system: Equine infectious anemia virus; experiment: Antiviral activity against equine infectious anemia virus (EIAV) in hypoxic condition obtained by passing nitrogen gas, after 10 min of illumination using focal, immunoassay
# [8] = system: Equine infectious anemia virus; experiment: Antiviral activity against equine infectious anemia virus (EIAV) in deoxygenation condition effected by using beta-carotene at a concentration of 80 uM
# [9] = system: Equine infectious anemia virus; experiment: Antiviral activity against equine infectious anemia virus (EIAV) in deoxygenation condition effected by using beta-carotene at a concentration of 64 uM
structure (smiles),measurement,setting,value
Cc1cc(O)c2c(=O)c3c(O)cc(O)c4c5c(O)cc(O)c6c(=O)c7c(O)cc(C)c8c1c2c(c34)c(c78)c65 [HYPERICIN],Infectious virus,[1],0 ffu ml-1
same,Infectious virus,[2],14500 ffu ml-1
same,Infectious virus,[3],5975 ffu ml-1
same,Infectious virus,[4],225 ffu ml-1
same,Infectious virus,[5],0 ffu ml-1
same,Infectious virus,[6],0 ffu ml-1
same,Infectious virus,[7],25 ffu ml-1
same,Infectious virus,[8],0 ffu ml-1
same,Infectious virus,[9],0 ffu ml-1
